Experimental data as given in PubChem BioAssay AID179 (DTP/NCI, 2004).
Values joined by “and” are separate entries in the source; they are usually repeats but may differ in a detail not shown here. Equal entries are not always repeated. Active and inactive are the calls of the source.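 Rule for the calls: active = compounds giving half or more protection of infected cells from virus-caused growth loss, again on retest; inactive = the rest.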

Tested on: CEM cells HIV-1 protection, formazan growth assay
Assay: NCI AIDS Antiviral Assay
Conditions: for IC50: measured here: growth of uninfected CEM cells
Outline: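 CEM (human) cells, HIV-1 infected vs uninfected, 5-point dosing, formazan growth read-out. Retest threshold 50% protection.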

Row | Compound | outcome | EC50 | IC50
1 | CC1(C)CCc2cc3c(cc2O1)OCCC3O (centres undefined) | inactive | – | –
2 | COc1cc(/C=C/C(=O)c2ccc(O)c(OC)c2)ccc1O | – | > 200 µM | 11.5 µM
3 | CCCNc1nc2c(c(=O)n1-c1ccccc1)C=C(C(=O)OC)CCN2S(=O)(=O)c1ccc(C)cc1 | – | > 14.1 µM | > 14.1 µM
4 | Cc1cc(NS(=O)(=O)c2ccc(NC(=O)c3cccc4c(Nc5ccc(S(=O)(=O)N=C(N)N)cc5)c5ccccc5nc34)cc2)no1 | – | 52.5 µM | 53.7 µM
5 | FC(F)(F)c1ccc2nc(NCc3ccccc3)c(-c3ccccc3)nc2c1 | – | > 19.1 µM | > 19.1 µM
6 | CN(C)c1nncc2n[nH]nc12 | – | > 200 µM | > 200 µM
7 | O=c1[nH]nc(Cc2ccc(Cl)cc2)n1O | – | > 200 µM | > 200 µM
8 | O=S(=O)(Nc1nc2ccccc2nc1N1CCCCCC1)c1ccccc1 | – | > 200 µM | 33.9 µM
9 | CC(C)/C(Cl)=N\OC(=O)Nc1ccc(F)c([N+](=O)[O-])c1 | – | > 200 µM | 3.02 µM
10 | c1c[se]c(-c2nc3ccccc3[nH]2)c1 | – | > 69.2 µM | > 69.2 µM
11 | Oc1c2cc(Br)cc1CCc1cc(Br)cc(c1O)CC2 | – | > 200 µM | 25.7 µM
12 | O=c1cc(-c2ccc(O)c(O)c2)oc2cc(OC3OC(CO)C(O)C(O)C3O)cc(O)c12 (centres undefined) | – | > 200 µM | 15.5 µM
13 | COc1ccc(C2SC(C)C(=O)N2c2nc(-c3nc(-c4ccc(Cl)cc4)cs3)cs2)cc1 (centres undefined) | – | > 200 µM | > 100 µM
14 | CCOC(=O)C(=O)Nc1ccc(Cl)c(C(F)(F)F)c1 | inactive | – | –
15 | Cc1ccc(C=C2C(=O)NC(=O)NC2=O)cc1 | – | > 155 µM | > 155 µM
16 | CC1(C)OCC(C2OC3OC(C)(C)OC3C2c2ccccc2)O1 (centres undefined) | – | > 200 µM | > 200 µM
17 | CCOC(=O)/C=C/CC(C)n1cc(C)c(=O)[nH]c1=O (centres undefined) | inactive | – | –
18 | CC(C(=O)O)N(N=O)c1ccccc1 (centres undefined) | – | > 676 µM | > 676 µM
19 | CCCCNC(=O)/C(=C/c1ccc2c(c1)OCO2)NC(=O)c1ccccc1 | – | > 200 µM | > 200 µM
20 | O=C(SSC(=O)c1ccccc1)c1ccccc1 | – | > 200 µM | 22.4 µM
21 | CCN(CC)CCOc1ccccc1/C=C/c1noc2ccccc12 | – | > 200 µM | 29.5 µM
22 | Cc1c(CN)c(C)c(CN)c(C)c1CN | – | > 200 µM | 97.7 µM
23 | CC1=NS(=O)(=O)c2cc(Cl)ccc2N1 | – | > 562 µM | > 407 µM and 537 µM

Row | Compound | outcome | EC50 | IC50
24 | O=C(NC(=O)c1cn(CCNCCO)c(=O)[nH]c1=O)OCc1ccccc1 | inactive | – | –
25 | Cn1c2ccccc2c2nn3cnnc3nc21 | – | > 32.4 µM | > 32.4 µM
26 | CCNc1nc2c(ncn2C2CC(O)C(COP(=O)(O)O)O2)c(=O)[nH]1 (centres undefined) | – | > 100 µM | > 100 µM
27 | O=C1N2Cc3c4ccc5c3CN3C(=O)N6Cc7c(ccc(c7CN1C6(c1ccccc1)C23c1ccccc1)OCCOCCNCCOCCO4)OCCOCCNCCOCCO5 (centres undefined) | – | > 6.03 µM | > 6.03 µM
28 | COC1=CC(=O)c2ccc(C(C)C)cc2C1(C)C1=NC(C)(C)CO1 (centres undefined) | – | > 151 µM | > 151 µM
29 | CC(=O)c1c(-c2cccc3ccccc23)c(C#N)c(=S)n(C2OC(CO)C(O)C(O)C2O)c1C (centres undefined) | – | > 200 µM | 132 µM and 53.7 µM
30 | Clc1ccc(SCCSCCCCCCCCCCSCCSc2ccc(Cl)cc2)cc1 | – | > 9.55 µM | > 9.55 µM
31 | Cc1ccc(S(=O)(=O)Nn2c(S)c(C#N)c(-c3ccc(Cl)cc3)c(C#N)c2=O)cc1 | – | > 200 µM | 12 µM
32 | CCN(CC)C1=Nc2ccccc2-n2ccnc2C1 | inactive | – | –
33 | CC(C)Cc1nc(-c2cc3ccccc3[nH]2)c(CC(C)C)nc1-c1cc2ccccc2[nH]1 | – | > 4.68 µM | > 4.68 µM
34 | Cc1ccccc1N(CC(=O)O)S(=O)(=O)c1ccccc1 | inactive | – | –
35 | O=C(NC1=NCC(CN2CCN(c3ccccc3)CC2)O1)Nc1ccccc1 (centres undefined) | – | > 200 µM | 155 µM
36 | COC(OC)C1OC(CO)C(n2cc(F)c(=O)[nH]c2=O)C1O (centres undefined) | – | > 200 µM | > 200 µM
37 | O=c1[nH]cnc2c1ncn2[C@@H]1C[C@H]1CO | inactive | – | –
38 | CCc1c(CNC2=NCCN2)c(CC)c(CNC2=NCCN2)c(CC)c1CNC1=NCCN1 | – | > 200 µM | > 200 µM
39 | CN1C(=O)Nc2ncn(C)c2S1(=O)=O | – | > 603 µM | > 603 µM
40 | O=C(CC/C(CC(=O)c1ccc(Br)cc1)=N\O)Nc1ccc(Cl)c(Cl)c1 | – | > 79.4 µM | 16.2 µM
41 | Cc1c2ccccc2nc(CSCc2ccccc2)[n+]1[O-] | – | > 200 µM | 162 µM
42 | CC1N=C(SCC(=O)c2ccc(F)cc2)N2C(C)N=C(SCC(=O)c3ccc(F)cc3)N12 (centres undefined) | – | > 75.9 µM | > 75.9 µM
43 | N#CC1(C#N)C2CCCCC23OC(=N)C1(C#N)C(c1ccco1)O3 (centres undefined) | – | > 200 µM | 5.75 µM
44 | COc1ccc(N2C(=O)C(=O)C3(CCCCC3)C2=O)c(OC)c1OC | – | > 200 µM | > 200 µM
45 | CNC(=O)O/N=C(/C)c1cccc([N+](=O)[O-])c1 | – | > 200 µM | > 200 µM
46 | O=C(NN=C1CCN(Cc2ccccc2)CC1)C(O)(c1ccccc1)c1ccccc1 | – | > 200 µM | > 200 µM

Row | Compound | outcome | EC50 | IC50
47 | COc1ccc2c(c1)c1c(n2CCN2CCOCC2)-c2ccccc2CC1 | inactive | – | –
48 | Nc1nc(Cl)c(N)c(NCC2(CO)CC(CCCc3ccccc3)C2)n1 (centres undefined) | – | > 0.2 µM | 0.186 µM
49 | CCOC(=O)/C(=C\c1cccc(Br)c1)C(C)=O | – | > 229 µM | 47.9 µM
50 | CCCCSC1=NCCCS1 | – | > 275 µM | > 275 µM
51 | O=C1CC([C@H](NC(=O)OCc2ccccc2)C(=O)O)ON1 (some centres undefined) | inactive | – | –
52 | CCOC(=O)c1cc(-c2ccc([N+](=O)[O-])cc2)c([N+](=O)[O-])[nH]1 | – | > 200 µM | 7.94 µM
53 | CN=C(/N=c1\ssc(=NC)n1C)N(C)C | – | > 70.8 µM | 50.1 µM
54 | COC1/C=C/OC2(C)Oc3c(C)c(O)c4c(O)c(cc(OCC(=O)N(C)CC(=O)OC(C)(C)C)c4c3C2=O)NC(=O)/C(C)=C/C=C/C(C)C(O)C(C)C(O)C(C)C(OC(C)=O)C1C (centres undefined) | – | > 200 µM | 28.2 µM
55 | O=P1(c2ccccc2)Nc2cc(Cl)c(Cl)cc2N1 | – | > 200 µM | 64.6 µM
56 | N#Cc1c(-c2ccccc2)cc(-c2ccccc2)n(C2OCC(O)C(O)C2O)c1=S (centres undefined) | – | > 200 µM | 21.4 µM
57 | CCc1ccc(C2=C(O)C(=O)C(c3ccc(CC)cc3)=C(O)C2=O)cc1 | – | > 70.8 µM | 9.77 µM
58 | CC1=NN(c2ccccc2)C(=O)C1N=Nc1ccc(S(=O)(=O)Nc2ccccn2)cc1 (centres undefined) | inactive | – | –
59 | Cc1nc2c(O)cc(Cl)c(O)c2nc1C | inactive | – | –
60 | O=C(O)CN(c1ccccc1Cl)S(=O)(=O)c1ccccc1 | inactive | – | –
61 | Cc1noc(NC(=O)Nc2ccccc2C(F)(F)F)c1C | – | > 200 µM | > 200 µM
62 | Cn1c(=O)c2c(nc3n2CCC(=O)N3)n(C)c1=O | – | > 251 µM | > 251 µM
63 | N#CC1CC(c2ccccc2)=NC1c1ccccc1 (centres undefined) | – | > 29.5 µM | > 29.5 µM
64 | CC(C)(C)c1ccc(N=O)cc1 | – | > 20 µM | 2.45 µM
65 | Cc1c(Cl)cccc1NC(=O)/C(Cl)=C(\Cl)C(=O)O | inactive | – | –
66 | NCCSc1nc2ccccc2c(=O)n1-c1ccccc1 | – | > 200 µM | 30.2 µM
67 | O=C1Nc2cnc(Cl)nc2Nc2cc(Cl)ccc21 | – | > 200 µM | > 200 µM
68 | COc1cc(O)c2cc1Oc1ccc(cc1)CC1c3cc(c(OC)cc3CCN1C)Oc1c(OC)c(OC)c(OC)c3c1[C@H](C2)N(C)CC3 (some centres undefined) | inactive | – | –
69 | Cn1c(COc2ccc(/C=N\N3CCN(/N=C\c4ccc(OCc5c[n+]6ccccc6n5C)cc4)CC3)cc2)c[n+]2ccccc12 | – | 6.31 µM | 7.59 µM

Row | Compound | outcome | EC50 | IC50
70 | NC(=S)/N=C/C1=C(O)CCCC1=O | – | > 200 µM | > 200 µM
71 | C=C1c2nc3ccccc3n2C=C(c2ccc(OC)cc2)N1c1ccccc1 | – | > 200 µM | 3.8 µM
72 | O=S(=O)(F)c1ccc(C[P+](c2ccccc2)(c2ccccc2)c2ccccc2)cc1 | – | > 200 µM | > 100 µM
73 | CCSC1=CC(Cc2ccc(OC)cc2)N(C(=O)OC)C1 (centres undefined) | – | > 85.1 µM | 60.3 µM
74 | C(=C\c1c2oc(-c3ccccc3)cc(-c3ccccc3)c-2c2ccccc12)/C=C1\c2ccccc2-c2c(-c3ccccc3)cc(-c3ccccc3)[o+]c21 | – | > 6.76 µM | > 6.76 µM
75 | COC(=O)CCC(=O)N1CC1C (centres undefined) | inactive | – | –
76 | Cc1cccc(NC(=O)Cc2nc3ccccc3s2)c1C | – | > 17.8 µM | > 17.8 µM
77 | CNS(=O)(=O)NN(C)S(=O)(=O)c1ccc(OC)cc1 | – | > 407 µM | 105 µM
78 | COc1cc(C(c2ccc3c(c2)OCO3)N2C(=O)CCC2C(=O)O)cc(OC)c1OC (centres undefined) | – | > 200 µM | > 200 µM
79 | Cc1nc(C)c(Cc2ccccc2)o1 | – | > 200 µM | > 200 µM
80 | COc1ccc2nc3ccccc3c(NCCC[N+](C)(C)[O-])c2c1[N+](=O)[O-] | – | > 200 µM | 14.1 µM
81 | NC1=NN(c2ccccc2)C(=O)C1/C(=N\NC(=O)c1cc2ccccc2cc1O)C(=O)Nc1cccc(C(F)(F)F)c1 (centres undefined) | – | > 6.61 µM | > 6.61 µM
82 | COC(=O)C1C2CC3c4[nH]c5cc(OC)ccc5c4CCN3CC2CC(OC)C1OC (centres undefined) | – | > 200 µM | > 200 µM
83 | COC(=O)[C@@]1(C(C)CC(=O)O)CCCCC1=O (some centres undefined) | – | > 1020 µM | 214 µM
84 | CC(C)(C)[Si](C)(C)OCC1OC(n2ccc(=O)[nH]c2=O)C(O[Si](C)(C)C(C)(C)C)C1(CC#N)Sc1ccccc1 (centres undefined) | – | > 200 µM | 10.7 µM
85 | Clc1cc(OCC23CC4CC(CC(C4)C2)C3)nc(OCC23CC4CC(CC(C4)C2)C3)n1 | – | > 100 µM | > 100 µM
86 | O=C(Nc1ccc2c(O)cc(S(=O)(=O)O)cc2c1)Nc1ccc2c(O)c(N=Nc3ccc4cc(S(=O)(=O)O)ccc4c3)c(S(=O)(=O)O)cc2c1 | active | – | –
87 | Cc1cccc2c(=O)c([Se]c3coc4c(C)cccc4c3=O)coc12 | – | > 33.1 µM | > 33.1 µM
88 | O=C1NNC=Nc2ccc(cc2)S(=O)(=O)c2ccc(cc2)N=CNNC1=O | – | > 224 µM | 162 µM
89 | CC(=O)N1C(=O)CC(c2ccccc2)Sc2ccccc21 (centres undefined) | – | > 151 µM | > 151 µM
90 | COc1c(Br)c(=O)n(C)c(=O)n1C | – | > 200 µM | > 200 µM
